Laboratory results from patent US20240327351A1, “AMIDE AND ETHER SUBSTITUTED N-(1H-INDOL-7-YL)BENZENESULFONAMIDES AND USES THEREOF” (TRIANA BIOMEDICINES, INC., priority 2021, published 2024).

Legend:
DCAF15/RBM39 = DCAF15/RBM39 (Homo sapiens, UniProt Q14498+Q66K64); experiment: AlphaLISA compound-induced DCAF15-RBM39 ternary complex formation; assay type: binding; details: His-tagged DCAF15 complex and biotin-carrying RBM39
Procedure: Example 6: Quantitative Evaluation of Compound-Induced Ternary Complex Formation Using Amplified Luminescent Proximity Homogeneous Assay
Compound-induced DCAF15-RBM39 ternary complex formation was monitored using AlphaLISA® assays (Perkin Elmer, Waltham, MA). Test compounds were first collected in a 384-well microplate (cat. #781280, Grenier Bio-One, Monroe, NC) as 2 mM stocks in 100% dimethyl sulfoxide (DMSO). These stocks were then serially diluted in DMSO by 3-fold into a new plate (cat. #781280, Grenier Bio-One, Monroe, NC) using a Mosquito HTS dispenser (mosquito@ HTS, SPT Labtech, Boston, MA). 0.2 ul of these diluted stocks were then dispensed into a 384-well Optiplate (cat. #6007290, Perkin Elmer, Waltham, MA) in duplicate wells, to assemble the final assay plate consisting of duplicated dose ranges. Separately, a protein mixture consisting of His-tagged DCAF15 complex and biotin-carrying RBM39, each at 408 nM (2.04×), was prepared in 50 mM HEPES, pH 7.5, 100 mM NaCl, 2 mM MgCl2, 0.1% BSA, 2 mM TCEP, 0.05% Tween-20 (dilution buffer). 9.8 ul of this protein mixture was then mixed with the compounds in the assay plate and incubated for one hour at room temperature. Reaction mixtures with no compounds added were included as negative controls, while a His-tagged and biotinylated GST protein was included to track general assay performance. Nickel Chelate AlphaLISA Acceptor beads (cat. #AL108M, Perkin Elmer, MA) and AlphaScreen Streptavidin Donor beads (cat. #6760002, Perkin Elmer, Waltham, MA) were prepared separately in the dilution buffer as 4× stocks (80 ug/ml). The beads were then added to the assay plate sequentially with incubation at room temperature for 1-2 hours after each addition. Signals were recorded using EnVision 2104 Multilabel Plate Reader (Perkin Elmer, Waltham, MA) and titration curves were generated in GraphPad Prism (7.00, GraphPad, La Jolla, CA).

DCAF15 = DCAF15 (Homo sapiens, UniProt Q66K64); experiment: HTRF competition assay, binary interaction between compounds and DCAF15; assay type: binding; details: competition with Alexa Fluor 647 tracer, His-tagged DCAF15 complex
Procedure: Example 7: Measurement of Binary Interaction Between Compounds And DCAF15 Using Homogeneous Time Resolved Fluorescence (HTRF)
DCAF15 interactions with test compounds were monitored using HTRF competition assays (Cisbio, Bedford, MA). Test compounds were first collected in a 384-well microplate (cat. #781280, Grenier Bio-One, Monroe, NC) as 10 mM stocks in 100% dimethyl sulfoxide (DMSO). A second stock plate (cat. #781280, Grenier Bio-One, Monroe, NC) was prepared through 3-fold serial dilution in DMSO of the afore-mentioned stocks using a Mosquito HTS dispenser (mosquito@ HTS, SPT Labtech, Boston, MA). 0.2 ul of these diluted stocks were then dispensed into a 384-well Optiplate (cat. #6007290, Perkin Elmer, Waltham, MA) in duplicate wells, to assemble the assay plate. The tracer molecule containing an Alexa Fluor 647 probe was prepared in 25 mM HEPES pH 7.5, 100 mM NaCl, 0.1 mg/ml BSA, 0.005% Tween 20, 0.5 mM TCEP (dilution buffer) to 612 nM (2.04×). Separately, His-tagged DCAF15 complex was prepared at 32 nM (4×) in the dilution buffer, and mAb Anti-6His-Eu cryptate Gold (cat. #61H12KLA, Cisbio, Bedford, MA) at 4× dilution in the detection buffer (cat. #61 DB9RDF, Cisbio, Bedford, MA). These two solutions were mixed and incubated for 15 min at room temperature. 9.8 ul of the tracer solution and 10 ul of the DCAF15/mAb Anti-6His-Eu cryptate Gold mixture were added sequentially to each well in the assay plate. Reaction mixtures with no DCAF15 added were included as positive controls. The final mixture was incubated for an hour at room temperature and spun down briefly before data collection at 615 nm and 666 nm using En Vision 2104 Multilabel Plate Reader (Perkin Elmer, Bedford, MA). Binding was estimated based on ratiometric analysis and titration curves were generated in GraphPad Prism (7.00, GraphPad, La Jolla, CA).

Row | Structure (SMILES) | EC50 (DCAF15/RBM39) [nM] | IC50 (DCAF15) [nM]
1 | O=S(=O)(Nc1ccc(Cl)c2c(Cl)c[nH]c12)c1ccc(OC[C@@H]2CCCNC2)cc1 [Compound 46] | 1000 to 10000 | 10000 to 100000
2 | Cc1ccnc(CNC(=O)c2cccc(S(=O)(=O)Nc3ccc(Cl)c4c(Cl)c[nH]c34)c2F)c1 [Compound 178] | 1000 to 10000 | 1000 to 10000
3 | O=S(=O)(Nc1ccc(Cl)c2c(Cl)c[nH]c12)c1ccc(OCc2ccc3c(c2)CNC3)cc1 [Compound 66] | < 1000 | 1000 to 10000
4 | CN1CC(CCNC(=O)c2cccc(S(=O)(=O)Nc3ccc(Cl)c4c(Cl)c[nH]c34)c2F)C1 [Compound 192] | < 1000 | < 1000
5 | CCN(CC)C(=O)c1ccc(CNC(=O)c2ccc(S(=O)(=O)Nc3ccc(Cl)c4c(Cl)c[nH]c34)c(F)c2)cc1 [Compound 171] | 1000 to 10000 | 1000 to 10000
6 | O=C(c1ccc(S(=O)(=O)Nc2ccc(Cl)c3c(Cl)c[nH]c23)c(F)c1)N1CCC(c2ccnc(C(F)F)c2)CC1 [Compound 222] | > 100000 | > 100000
7 | Cc1cnc(CNC(=O)c2ccc(S(=O)(=O)Nc3ccc(Cl)c4c(Cl)c[nH]c34)c(F)c2)cn1 [Compound 184] | > 100000 | < 1000
8 | CS(=O)(=O)c1ccc(CCOc2ccc(S(=O)(=O)Nc3ccc(Cl)c4c(Cl)c[nH]c34)cc2)cc1 [Compound 77] | 1000 to 10000 | > 100000
9 | COCCOCCCNC(=O)c1ccc(S(=O)(=O)Nc2ccc(Cl)c3c(Cl)c[nH]c23)c(F)c1 [Compound 203] | < 1000 | 1000 to 10000
10 | Cc1nc(-c2ccc(COc3cccc(S(=O)(=O)Nc4ccc(Cl)c5c(Cl)c[nH]c45)c3)cc2)no1 [Compound 63] | 1000 to 10000 | > 100000
11 | CN1CC[C@@H](c2ccc(F)cc2)[C@H](COc2ccc(S(=O)(=O)Nc3ccc(Cl)c4c(Cl)c[nH]c34)cc2)C1 [Compound 42] | 1000 to 10000 | 1000 to 10000
12 | CN1C[C@@H](NC(=O)c2cccc(S(=O)(=O)Nc3ccc(Cl)c4c(Cl)c[nH]c34)c2F)CCC1=O [Compound 158] | < 1000 | < 1000
13 | N[C@@H]1CCC[C@@H](Oc2ccc(S(=O)(=O)Nc3ccc(Cl)c4c(Cl)c[nH]c34)cc2)C1 [Compound 7] | < 1000 | 1000 to 10000
14 | Cc1ccc(CCNC(=O)c2cccc(S(=O)(=O)Nc3ccc(Cl)c4c(Cl)c[nH]c34)c2F)o1 [Compound 198] | 1000 to 10000 | 1000 to 10000
15 | COc1cccc(Oc2ccc(CNC(=O)c3cccc(S(=O)(=O)Nc4ccc(Cl)c5c(Cl)c[nH]c45)c3F)cn2)c1 [Compound 181] | 1000 to 10000 | 1000 to 10000
16 | N[C@H]1CC[C@H](Oc2ccc(S(=O)(=O)Nc3ccc(Cl)c4c(Cl)c[nH]c34)cc2)CC1 [Compound 5] | < 1000 | 1000 to 10000
17 | O=C(NC[C@H]1Cc2ccccc21)c1cccc(S(=O)(=O)Nc2ccc(Cl)c3c(Cl)c[nH]c23)c1F [Compound 164] | 1000 to 10000 | 1000 to 10000
18 | CN(C)C(=O)c1cccc(S(=O)(=O)Nc2ccc(Cl)c3c(Cl)c[nH]c23)c1 [Compound 238] | 1000 to 10000 | 1000 to 10000
19 | O=C(NCCCOCc1ccccc1)c1cccc(S(=O)(=O)Nc2ccc(Cl)c3c(Cl)c[nH]c23)c1F [Compound 204] | 1000 to 10000 | 1000 to 10000
20 | O=C(NC[C@H]1Cc2ccccc21)c1ccc(S(=O)(=O)Nc2ccc(Cl)c3c(Cl)c[nH]c23)c(F)c1 [Compound 165] | > 100000 | > 100000
21 | CN1C[C@@H](NC(=O)c2ccc(S(=O)(=O)Nc3ccc(Cl)c4c(Cl)c[nH]c34)c(F)c2)CCC1=O [Compound 159] | < 1000 | < 1000
22 | O=C(c1ccc(S(=O)(=O)Nc2ccc(Cl)c3c(Cl)c[nH]c23)c(F)c1)N1CC(N2CCc3ccccc32)C1 [Compound 215] | 1000 to 10000 | 10000 to 100000
23 | CN(C)C(=O)C[C@H](NC(=O)c1ccc(S(=O)(=O)Nc2ccc(Cl)c3c(Cl)c[nH]c23)c(F)c1)c1ccccc1 [Compound 197] | < 1000 | 1000 to 10000
